Series [1] deals with T1, recombinant mouse VAP-1 (rmVAP-1) (Mus musculus, UniProt O70423).
T1 sequence (O70423 28-765 limits assumed): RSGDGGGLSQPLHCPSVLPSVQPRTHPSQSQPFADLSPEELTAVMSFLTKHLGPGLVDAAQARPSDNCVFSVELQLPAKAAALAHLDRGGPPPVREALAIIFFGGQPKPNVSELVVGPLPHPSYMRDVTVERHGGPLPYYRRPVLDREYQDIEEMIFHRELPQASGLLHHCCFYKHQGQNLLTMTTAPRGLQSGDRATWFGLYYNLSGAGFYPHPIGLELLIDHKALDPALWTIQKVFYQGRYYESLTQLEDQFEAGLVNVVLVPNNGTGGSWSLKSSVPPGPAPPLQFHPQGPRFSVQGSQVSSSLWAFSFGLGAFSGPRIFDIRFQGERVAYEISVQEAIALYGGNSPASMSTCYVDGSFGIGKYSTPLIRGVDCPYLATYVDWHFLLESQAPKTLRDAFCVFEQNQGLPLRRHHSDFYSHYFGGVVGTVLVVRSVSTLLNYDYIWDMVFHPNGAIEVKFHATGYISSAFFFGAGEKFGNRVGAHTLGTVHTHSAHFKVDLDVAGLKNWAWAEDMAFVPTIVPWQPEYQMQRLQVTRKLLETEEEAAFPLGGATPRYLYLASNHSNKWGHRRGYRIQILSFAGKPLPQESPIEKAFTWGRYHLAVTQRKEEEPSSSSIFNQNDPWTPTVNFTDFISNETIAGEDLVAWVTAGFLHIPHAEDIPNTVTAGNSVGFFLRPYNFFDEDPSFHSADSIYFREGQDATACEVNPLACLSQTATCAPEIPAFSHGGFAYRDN
The series is described as follows: VAP-1 oxidative deamination fluorescence assay (Amplex Red, benzylamine), inhibition.
Experimental: The enzymatic activity of recombinant VAP-1 and inhibitor potency was determined using a variation of the fluorometric assay for measuring hydrogen peroxide formation [22]. Briefly, the assay measures the H2O2 generated during the oxidative deamination of an amine substrate (BA for inhibition purposes) by converting Amplex® Red to the fluorescent product, resorufin, via horseradish peroxidase (HRP). […] Stock solutions of Amplex Red (1 mM), HRP (10 U/mL), the substrates (200 μM BA for inhibition), and inhibitor were prepared in reaction buffer and added to the appropriate wells, that the final concentration in each well was 0.05 mM Amplex Red, 0.5 U/mL HRP, and 50 μM BA (saturating condition) in a total reaction volume of 0.1 mL.
Standard curves were prepared for each plate by serially diluting H2O2 in reaction buffer with equivalent concentrations of Amplex Red and HRP. A 10 μM solution of resorufin was prepared in reaction buffer and was dispensed in duplicate as the positive control for maximum fluorescence. Plates were incubated for 30 minutes at 37°C, protected from light under foil to minimize the resorufin artifactually formed when Amplex Red is exposed to light [28]. The plate was read at 530/35 emission and 590/35 excitation. The mean fluorescence of the background was subtracted from the mean fluorescence of the inhibitor concentration in the presence of BA. The percent control was calculated using equation (1). […] (1) %control=average fluorescence with inhibitor−background/average fluorescence of reaction without inhibitor−background×100, (2) %inhibition=100−%control.

For a further series, the system named is rat VAP-1. Set-up: method as in PMID 23540955. The following applies: recombinant enzyme suspension from CHO cells expressing rat VAP-1, 14C-BA; read-out: IC50 previously reported, Rat; cited from earlier work.
The next series relates to rhVAP-1. Set-up: method as in PMID 23664164. Conditions: recombinant human VAP-1; cited from earlier work.
Series [2] concerns STZ-induced diabetic rats. Set-up: method as in PMID 23664164. The following applies: administered subcutaneously; cited from earlier work.
Another series concerns human VAP-1. Set-up: method as in PMID 23540955. Conditions: recombinant enzyme suspension from CHO cells expressing human VAP-1, 14C-BA; read-out: IC50 previously reported, Human; cited from earlier work.
Series [3] has as its target T2, recombinant human VAP-1 (rhVAP-1) (Homo sapiens, UniProt Q16853).
T2 construct: purchased R&D Systems 3957-AO-010; host or cells: Spodoptera frugiperda Sf21 (baculovirus)
T2 sequence (Q16853 27-763 limits assumed): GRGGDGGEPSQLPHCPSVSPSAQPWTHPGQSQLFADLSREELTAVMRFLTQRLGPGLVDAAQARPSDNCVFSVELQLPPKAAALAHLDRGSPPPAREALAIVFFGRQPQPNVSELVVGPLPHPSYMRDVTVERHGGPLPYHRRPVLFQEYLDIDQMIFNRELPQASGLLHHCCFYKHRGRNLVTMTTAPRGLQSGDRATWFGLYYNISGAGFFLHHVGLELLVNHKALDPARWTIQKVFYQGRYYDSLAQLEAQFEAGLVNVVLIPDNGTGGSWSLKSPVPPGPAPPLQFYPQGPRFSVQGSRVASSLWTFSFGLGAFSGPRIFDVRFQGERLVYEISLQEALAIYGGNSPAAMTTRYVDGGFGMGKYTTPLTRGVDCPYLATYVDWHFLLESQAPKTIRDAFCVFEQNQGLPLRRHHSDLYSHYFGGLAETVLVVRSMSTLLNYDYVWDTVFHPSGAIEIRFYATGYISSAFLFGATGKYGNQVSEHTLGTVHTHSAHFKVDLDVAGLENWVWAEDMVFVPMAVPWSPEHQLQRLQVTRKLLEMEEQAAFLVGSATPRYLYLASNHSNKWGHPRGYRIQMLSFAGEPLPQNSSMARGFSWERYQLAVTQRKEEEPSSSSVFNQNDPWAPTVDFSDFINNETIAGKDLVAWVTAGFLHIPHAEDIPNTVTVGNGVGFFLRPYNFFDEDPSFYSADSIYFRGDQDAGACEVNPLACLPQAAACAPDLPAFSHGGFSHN
The series is described as follows: VAP-1 oxidative deamination fluorescence assay (Amplex Red, benzylamine), inhibition. In kind it is biochemical. Conditions: for IC50: recombinant human VAP-1, 50 μM BA, 30 minutes at 37°C, three separate determinations, read-out: IC50 mean ± SD, Human. Here is the method:
(§1) Data processing was performed using Prism software.

Series [4] deals with T3, recombinant rat VAP-1 (rrVAP-1) (Rattus norvegicus, UniProt O08590).
T3 construct: purchased R&D Systems (custom product); host or cells: Spodoptera frugiperda Sf21 (baculovirus)
T3 sequence (O08590 28-763 limits assumed): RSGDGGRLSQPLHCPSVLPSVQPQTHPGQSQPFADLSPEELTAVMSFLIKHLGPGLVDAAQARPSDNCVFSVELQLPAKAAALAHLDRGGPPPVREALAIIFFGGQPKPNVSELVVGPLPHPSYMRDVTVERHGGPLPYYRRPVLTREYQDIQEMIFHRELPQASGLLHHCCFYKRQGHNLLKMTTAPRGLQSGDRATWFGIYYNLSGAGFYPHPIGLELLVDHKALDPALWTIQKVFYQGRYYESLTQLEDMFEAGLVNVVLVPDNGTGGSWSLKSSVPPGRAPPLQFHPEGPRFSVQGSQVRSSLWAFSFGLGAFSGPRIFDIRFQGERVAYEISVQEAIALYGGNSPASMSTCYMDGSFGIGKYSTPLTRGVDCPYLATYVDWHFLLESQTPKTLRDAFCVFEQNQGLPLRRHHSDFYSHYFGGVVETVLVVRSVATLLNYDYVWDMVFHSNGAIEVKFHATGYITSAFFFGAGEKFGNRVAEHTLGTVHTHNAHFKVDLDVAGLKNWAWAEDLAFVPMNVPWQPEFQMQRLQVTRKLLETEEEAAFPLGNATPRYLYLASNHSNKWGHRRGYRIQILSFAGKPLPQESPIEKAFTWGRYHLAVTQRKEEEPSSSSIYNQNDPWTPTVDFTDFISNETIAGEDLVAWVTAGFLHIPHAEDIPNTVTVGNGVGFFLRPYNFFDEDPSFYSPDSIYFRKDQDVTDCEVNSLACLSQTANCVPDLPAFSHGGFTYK
The series is described as above. In kind it is biochemical. The following applies: recombinant rat VAP-1, 50 μM BA, 30 minutes at 37°C, three separate determinations; read-out: IC50 mean ± SD, Rat. Here is the method: as §1

Series [5] concerns human VAP-1 from aorta membrane preparations. Conditions: read-out: IC50 previously reported, Human, LC-MS/MS benzaldehyde formation; cited from earlier work.
Series [6] deals with human VAP-1 recombinant enzymes. The following applies: read-out: IC50 previously reported, Human, LC-MS/MS benzaldehyde formation; cited from earlier work.
In series [7] the test system is VAP-1 in bovine lung microsomes. Also noted: method as in PMID 8694842. The following applies: coincubated with benzylamine; cited from earlier work.
Series [8] deals with VAP-1 from rat aorta homogenates. Conditions: read-out: IC50 previously reported, Rat, 14C-BA; cited from earlier work.
Series [9] has as its system VAP-1 from human umbilical cord homogenates. Set-up: method as in PMID 16081681. Conditions: radiolabeled substrate, read-out: IC50 previously reported, Human; cited from earlier work.
A further series concerns rats. Also noted: method as in PMID 16081681, PMID 23263543. Conditions: oral administration to rats, carrageenan footpad model; cited from earlier work.
Series [10] relates to VAP-1 from rat lung homogenates. Set-up: method as in PMID 16081681. Conditions: radiolabeled substrate, read-out: IC50 previously reported, Rat; cited from earlier work.
In the next series the test system is mice. Set-up: method as in PMID 16081681, PMID 23263543. Conditions: oral administration to mice, ulcerative colitis and LPS-induced endotoxemia; cited from earlier work.
The subject of series [11] is rat and mouse disease models. Conditions: various rat and mouse disease models; cited from earlier work.
Series [12] relates to VAP-1 in in vitro tissue preparations. Set-up: method as in PMID 8920635. The following applies: humans; cited from earlier work.
Another series relates to lysyl oxidase (LOX). Set-up: method as in PMID 17872591, PMID 17452500, PMID 18469024. The following applies: cited from earlier work.
In the next series the test system is VAP-1. Also noted: method as in PMID 16570912. Conditions: cell-based inhibition assay; cited from earlier work.
For another series, the target named is recombinant mouse VAP-1 (Mus musculus, UniProt O70423). The series is described as follows: Substrate saturation curves, fluorometric assay detecting hydrogen peroxide. Conditions: recombinant mouse VAP-1, n = 1 plate.
The next series addresses recombinant human VAP-1 (Homo sapiens, UniProt Q16853). Described as above. Conditions: recombinant human VAP-1, n = 1 plate.
A further series deals with recombinant rat VAP-1 (Rattus norvegicus, UniProt O08590). The series is described as above. Conditions: recombinant rat VAP-1, n = 1 plate.

Each structure is given as a SMILES string. “Also recorded” adds a separate entry of the source. Read-outs that look alike come from different tables or passages of the source.

In the case of `CC(=O)Nc1nc(CCc2ccc(NC(=N)N)cc2)c(Cc2ccc(S(C)(=O)=O)cc2)s1` [Astellas compound 35c], the IC50 was 414 ± 113 nM in series [1]; 72 nM with rat VAP-1; 230 nM in the series with rhVAP-1; 20 nM in the series with human VAP-1; 22.5 ± 6.9 nM in [3]; 50.4 ± 6.8 nM in series [4]. For the same molecule, in series [2], the Ocular permeability entry is “significantly reduced ocular permeability”.
On to `NNc1nncc2ccccc12` [Hydralazine (HYD), hydralazine], for which the IC50 in series [1] was 1180 ± 92 nM; in series [5], 6400 nM; in series [6], 26500 nM; in series [8], 25 nM; in series [3], 7750 ± 2320 nM; in [4], 3130 ± 123 nM. In addition, the “Potency relative to semicarbazide” value in series [7] is “twenty times more potent”.
Consider `C=C(CNN)c1ccccc1` [LJP-1207], for which the IC50 in series [1] was 102 ± 47.8 nM; in [9] it was 17 nM; in [10] it was 7.5 nM; in [3] it was 252 ± 22.5 nM; in series [4], 120 ± 6.7 nM. Moreover, the Reduction of inflammation entry in the series with rats and in the series with mice was “effective in reducing inflammation” in each case.
Take `CC(C)(C)NC(=O)c1ccc(OC/C(=C/F)CN)cc1` [PXS-4728A]: the “Leukocyte adhesion and migration to sites of lung inflammation” value in series [11] was “reduced leukocyte adhesion and migration”.
What is called Km is the concentration of substrate that gives half-maximal velocity. As to `NCCc1ccccc1` [Phenylethylamine (PEA), phenylethylamine], the Km in series [12] is 7.9 mM.
In the case of `NNC(N)=O` [Semiarid (SEM), semicarbazide], the IC50 stood at 295000 ± 29000 nM in [1] (read-out: IC50 mean ± SD, Mouse, recombinant mouse VAP-1, 50 μM BA, 30 minutes at 37°C, three separate determinations); 85900 ± 12900 nM in series [3]; 993000 ± 1.22e+06 nM in series [4]. Moreover, the “Inhibition of lysyl oxidase (in words)” value in the series on lysyl oxidase (LOX) was “inhibits”. In addition, the “Semicarbazide required for inhibition relative to LJP-1207” value with VAP-1 is recorded as 100 x. In addition, in [3] (85.9 μM vs. 993 μM), the “Difference in IC50 between human and rat VAP-1” value was ~10 fold.
For the molecule `NCCc1ccc(O)cc1` [TYR, tyramine], at recombinant mouse VAP-1, the “Substrate turnover (in words)” value is “low reaction rates; also recorded: not a substrate”. Further, the Km in series [12] was 10.5 mM.
Take `NNCCc1ccccc1` [phenelzine]: the “Potency relative to semicarbazide” value in [7] is given as “over 100 times”.
Take `NNc1ccccc1` [phenylhydrazine]: in [7], the “Potency relative to semicarbazide” value is on record as “over 100 times”.
As to `NCCc1c[nH]c2ccccc12` [tryptamine], the “Substrate turnover (in words)” value on recombinant human VAP-1, at recombinant mouse VAP-1 and on recombinant rat VAP-1 was “low reaction rates” in each case.
